Patent US12599602B2, “Methods for treating cholestasis” (Mirum Pharmaceuticals, Inc., priority 2019, dated 2026)
Values joined by “and” are separate entries in the source; they are usually repeats but may differ in a detail not shown here. Equal values may be shown once.

Columns and labels:
[1] = tested on: Children with Progressive Familial Intrahepatic Cholestasis; assay: INDIGO phase 2 open-label efficacy and safety clinical study of maralixibat in PFIC; format: in vivo, human; conditions: for 7αC4:sBA ratio: high-dose responder
[2] = tested on: Participants with Primary Sclerosing Cholangitis (PSC); assay: CAMEO 14-week single-arm open-label phase 2a study of maralixibat in PSC; format: in vivo, human
Method: Participants were adults aged 18-80 years with a diagnosis of PSC. PSC diagnosis included a documented history of alkaline phosphatase (ALP) levels greater than 1.5 times above the upper limit of normal, biliary obstruction, and histological findings consistent with PSC diagnosis (if previously biopsied). The study enrolled 27 adults.
Efficacy was assessed by measuring at baseline and throughout the study sBA concentration, serum 7αC4 concentration (a marker of de novo bile acid synthesis), serum aoutotaxin concentration, LDL-C concentration, serum total cholesterol concentration, serum liver enzyme concentrations, and pruritus severity. Pruritus severity was determined by calculating Adult Itch Reported Outcome (ITCHRO) weekly sum scores and average daily scores (mean score over a 7-day period). Participants self-reported the ITCHRO daily on a scale 0-10 (0=no pruritus; 10=most severe pruritus).
Outcomes were assessed in the overall study population and in subgroups of participants (A) with any pruritus at baseline or (B) with an ITCHRO average daily score ≥4 out of 10 at baseline. Efficacy endpoints were based on change from baseline to week 14 or early termination (ET) and were analyzed using paired t-tests or Wilcoxon signed rank tests.

[3] = tested on: Overweight and obese adults; assay: Phase 1 blinded, placebo-controlled, dose-ranging clinical study (NCT02475317), fecal bile acid excretion
Method: Participants consumed a low-fiber diet (<10 mg/day) for 2 days before randomization and during the 7-day treatment period. Measurements were taken of fBA, sBA concentration, and serum 7αC4 concentration (which is a biomarker of bile acid synthesis) prior to drug administration and at day 7.

[4] = participants with ITCHRO daily score ≥4 at baseline, one line per Participant A-F
[5] = participants with an ITCHRO daily score ≥4 at baseline

## maralixibat
[1]; all low-dose responders, e.g. within 2-6 months of first administration
  serum ALT, AST, and bilirubin concentrations over time: normalized or only mildly elevated concentrations
[1]; all low-dose responders, within 13 weeks of first administration
  increase in C4 levels relative to baseline: at least 2.5 fold
[1]; high dose responder, following treatment response on sBA
  height Z-score: increase in height Z-score
[1]; prior to administration of 560 μg/kg/day
  7αC4:sBA ratio: 12 times baseline
[1]; upon administration of the higher dose (560 μg/kg/day)
  7αC4:sBA ratio: 1770 times baseline
[1]; low-dose responder losing response in long-term extension, 280 μg/kg BID from between 640 and 730 days
  cholestasis markers after administration of the higher dose: sBA concentration decreased, severity of pruritus decreased, serum 7αC4 concentration increased, and 7αC4:sBA ratio increased
[1]; low-dose responder with sBA increase in long-term extension, 280 μg/kg BID from between 820 and 910 days
  pruritus after administration of the higher dose: severity of pruritus subsequently decreased
[1]; low-dose responders
  7αC4 concentrations at 48 weeks: 14 × baseline
  growth (height Z-score change relative to baseline): improved growth relative to baseline
  mean change from baseline at week 48 in 7αC4:sBA ratio: 1388 times baseline ratio
[1]; mild PFIC 2 patients, 280 μg/kg QD
  multi-parameter responder: 1 of 7
[1]; moderate PFIC 2 patients, 280 μg/kg/day by week 48
  responders: 5 of 12
[1]; moderate PFIC 2 patients, responsive only after 280 μg/kg twice daily
  high-dose responder: 1 of 12
[1]; non-responders
  7αC4 concentrations at 48 weeks: 1.8 × baseline
  growth (height Z-score change relative to baseline): did not
  mean change from baseline at week 48 in 7αC4:sBA ratio: 1.9 times baseline ratio
[1]; non-truncating BSEP mutations
  patients with ≥1.0 pt. reduction in ITCHRO(OBS) score: 10/19
[1]; responders
  duration of maintained response: for over a year and for up to or beyond 5 years
[1]; responders (n = 6) by week 48
  ItchRO score, n: Improved by ≥1.0 points from baseline: 4
  ItchRO score, n: Zero (no pruritus): 2
  sBA levels, n: Normalized (±≤8.5 μmol/L): 4
  sBA levels, n: Reduced by ≥70% or ≥80% from baseline: 2
[1]; three non-truncating PFIC 2 patients without response at 280 μg/kg/day given 560 μg/kg/day
  patients responding at the higher dose: one
[1]; week 48
  ALT, change from baseline to week 48, mean: −12 UI/L
  C4, change from baseline to week 48, mean: +6.0 ng/mL
  ItchRO(Obs) score, change from baseline to week 48, mean: −1.0
  PedsQL total score, change from baseline to week 48, mean: +8.2
  Total bilirubin, change from baseline to week 48, mean: +0.8 mg/dL
  sBA, change from baseline to week 48, mean: -32 µmol/L
[2]; adults with PSC, up to 10 mg/day
  tolerability: well tolerated
[2]; baseline to week 14
  participants with worsening of pruritus by >1 point: No participants
[2]; overall
  7αC4, mean increase from baseline: 11.1 ng/mL
  Mean levels of 7αC4, increase from baseline: 130%
  sBA levels, decrease from baseline: 38%
  sBA levels, mean change from baseline: -14.8 µmol/L
[2]; overall population
  Mean conjugated bilirubin levels, increase: 0.19 mg/dL
  serum LCL-C concentration, change: -16.3 mg/dL
  serum autotaxin concentration, change: -148 ng/mL
  total cholesterol, mean change: -21.2 mg/dL
[2]; overall, baseline to week 14/ET
  ITCHRO weekly sum scores, decrease from baseline: 51%
[2]; participants in the CAMEO clinical study
  Changes in serum total bilirubin, alanine aminotransferase, aspartate aminotransferase, and alkaline phosphatase concentrations: not statistically significant
[2]; participants with ITCHRO daily score ≥0 at baseline
  conjugated bilirubin levels, change: no significant change
[2]; [4]
  ItchRO average daily score (0-10 scale), Change from baseline to week 14/ET: −4.7 and −4.6 and −1.7 and −3.7 (2×) and −9.1
  ItchRO average daily score (0-10 scale), Week 14/ET: 0 (2×) and 1.3 and 5.1 and 3.1 and 2.3
[2]; participants with an ITCHRO daily score >4 at baseline
  autotaxin levels: significant reductions
[2]; participants with an ITCHRO daily score >4 out of 10 at baseline (n=6)
  ITCHRO weekly sum scores, decrease from baseline: 70%
[2]; [5]
  Mean levels of 7αC4, increase from baseline: 107%
  sBA levels, decrease from baseline: 45%
  total cholesterol, mean change: -32.0 mg/dL
[2]; participants with an ITCHRO score ≥4 at baseline
  participants in whom pruritus improved: all 6
[2]; participants with any pruritus at baseline (n=18)
  ITCHRO weekly sum scores, decrease from baseline: 53%
[3]; 10 mg dose, 7 days
  fBA excretion, mean change from baseline: 515 µmol
[3]; 20 mg dose, 7 days
  fBA excretion, mean change from baseline: 532 µmol
[3]; 50 mg BID, 7 days
  fBA excretion, mean change from baseline: 1251 µmol
[3]; 100 mg QD, 7 days
  fBA excretion, mean change from baseline: 1144 µmol
[3]; 7 days
  Mean sBA levels: not elevated
[3]; across doses
  fBA excretion: increased in a dose-dependent manner
[3]; all doses
  treatment-emergent adverse events occurring in over 10% of participants: headache and diarrhea
  treatment-emergent adverse events, severity: mild, and none were serious
[3]; baseline to day 7
  Mean serum 7αC4: increased
